Values quoted from earlier work as cited in patent US20040115263A1, “Use of bupropion for treating restless legs syndrome” (priority 2002, published 2004).

What was measured:
[1] = RLS patients

cases in which augmentation is a complicating feature (human, in vivo)	SMILES	side effects reported [1]	efficacy in treating RLS (L-dopa given with a peripheral carboxylase inhibitor at a 10:1 ratio, patients)
–	CC(C)C[C@H]1C(=O)N2CCC[C@H]2[C@]2(O)O[C@](NC(=O)[C@@H]3C=C4c5cccc6[nH]c(Br)c(c56)C[C@H]4N(C)C3)(C(C)C)C(=O)N12 [Bromocriptine]	transient nasal stuffiness and lightheadedness in one patient	–
65-80%	N[C@@H](Cc1ccc(O)c(O)c1)C(=O)O [L-dopa]	–	effective
